Among the data in US20090253669A1, “Substituted Sulfonamide Compounds” (GRUENENTHAL GmbH, priority 2008, published 2009) are inhibition values, retold here.

Assay [1] deals with T1, human B1R receptor (hB1R) (Homo sapiens, UniProt P46663).
T1 construct: host or cells: CHO K1 cells
T1 sequence (P46663 1-353): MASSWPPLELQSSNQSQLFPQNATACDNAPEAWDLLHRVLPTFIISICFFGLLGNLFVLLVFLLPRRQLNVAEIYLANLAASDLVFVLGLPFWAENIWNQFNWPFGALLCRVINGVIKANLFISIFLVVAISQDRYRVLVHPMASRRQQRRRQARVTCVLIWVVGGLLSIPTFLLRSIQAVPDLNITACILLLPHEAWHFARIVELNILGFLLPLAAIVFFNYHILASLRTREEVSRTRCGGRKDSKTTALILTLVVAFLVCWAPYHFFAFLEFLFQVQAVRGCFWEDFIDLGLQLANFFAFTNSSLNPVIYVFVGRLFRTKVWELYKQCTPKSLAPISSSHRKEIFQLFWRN
In words: FLIPR Ca2+ assay on hB1R-transfected CHO K1 cells, antagonistic action. Type of assay: cell-based. The settings on record: CHO-K1, 10 μM test substance; agonist Lys-Des-Arg9-bradykinin 0.5 nM; % of maximum achievable inhibition; read-out: hB1R [10 μM] % inhibition.

Assay [2] concerns the target T2, B1R receptor of the rat (rB1R) (Rattus norvegicus, UniProt P97583).
T2 construct: host or cells: CHO K1 cells
T2 sequence (P97583 1-337): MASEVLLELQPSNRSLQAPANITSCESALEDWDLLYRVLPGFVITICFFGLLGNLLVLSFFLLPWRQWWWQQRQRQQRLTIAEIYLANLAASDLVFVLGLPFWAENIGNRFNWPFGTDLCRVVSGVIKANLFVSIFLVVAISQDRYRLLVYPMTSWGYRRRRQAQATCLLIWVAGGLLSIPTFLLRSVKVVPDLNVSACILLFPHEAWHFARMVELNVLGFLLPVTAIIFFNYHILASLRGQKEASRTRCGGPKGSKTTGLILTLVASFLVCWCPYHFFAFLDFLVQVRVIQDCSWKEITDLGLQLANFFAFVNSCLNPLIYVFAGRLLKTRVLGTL
In words: FLIPR Ca2+ assay on rB1R-transfected CHO K1 cells, antagonistic action. Type of assay: cell-based. The settings on record: CHO-K1, 10 μM test substance; agonist Des-Arg9-bradykinin 100 nM; % of maximum achievable inhibition; read-out: rB1R [10 μM] % inhibition.

With `COc1cc(C)c(S(=O)(=O)N2CCCCC2COCC(=O)N2CCC(c3ccccc3)(N(C)C)CC2)c(C)c1` (stereo not shown) [Compound 202, 1-(4-(dimethylamino)-4-phenylpiperidin-1-yl)-2-((1-(4-methoxy-2,6-dimethylphenylsulfonyl)piperidin-2-yl)methoxy)ethanone], the inhibition at 10 µM was determined as 100% in assay [1] and 103% in assay [2].
For `CN1CCN(C2(Cc3ccccc3)CCC(CN(C)C(=O)COCC3CCCCN3S(=O)(=O)c3c(Cl)cc(Cl)cc3Cl)CC2)CC1` (stereo not shown) [Compound 162, N-((4-benzyl-4-(4-methylpiperazin-1-yl)cyclohexyl)methyl)-N-methyl-2-((1-(2,4,6-trichlorophenylsulfonyl)piperidin-2-yl)methoxy)acetamide], in that order: 102% and 94%.
The like results for `CN(CCCC1CCC(c2ccccc2)(N2CCCC2)CC1)C(=O)CC(NS(=O)(=O)c1ccc2ccccc2c1)c1ccccc1` (stereo not shown) [Compound 128, N-methyl-3-(naphthalene-2-sulfonamido)-3-phenyl-N-(3-(4-phenyl-4-(pyrrolidin-1-yl)cyclohexyl)propyl)propanamide] were, in that order, 98% and 53%.
The like results for `COc1cc(C)c(S(=O)(=O)N(C)CCOCC(=O)N2CCC(c3ccncc3)(N(C)C)CC2)c(C)c1` [Compound 206, N-(2-(2-(4-(dimethylamino)-4-(pyridin-4-yl)piperidin-1-yl)-2-oxoethoxy)ethyl)-4-methoxy-N,2,6-trimethylbenzenesulfonamide] were, in that order, 100% and 99%.
In the case of `CN(CCCC1CCC(CCc2ccccc2)(N2CCCC2)CC1)C(=O)CC1CCCCN1S(=O)(=O)c1cccc(C(F)(F)F)c1` (stereo not shown) [Compound 134, N-methyl-N-(3-(4-phenethyl-4-(pyrrolidin-1-yl)cyclohexyl)propyl)-2-(1-(3-(trifluoromethyl)phenylsulfonyl)piperidin-2-yl)acetamide], the values for the inhibition at 10 µM in assay [1] and in assay [2] were 102% and 38%, respectively.
For `CN1CCN(C2(CCc3ccccc3)CCC(CN(C)C(=O)COCC3CCCN3S(=O)(=O)c3c(Cl)cc(Cl)cc3Cl)CC2)CC1` (stereo not shown) [Compound 172, N-methyl-N-((4-(4-methylpiperazin-1-yl)-4-phenethylcyclohexyl)methyl)-2-((1-(2,4,6-trichlorophenylsulfonyl)pyrrolidin-2-yl)methoxy)acetamide], the inhibition at 10 µM in assay [1] is 98%; in assay [2] it was 79%.
For `COc1cc(C)c(S(=O)(=O)N(C)CCOCC(=O)N2CCC(c3cccnc3)(N(C)C)CC2)c(C)c1` [Compound 208, N-(2-(2-(4-(Dimethylamino)-4-(pyridin-3-yl)piperidin-1-yl)-2-oxoethoxy)ethyl)-4-methoxy-N,2,6-trimethylbenzenesulfonamide], in that order: 100% and 102%.
As to `COc1cc(C)c(S(=O)(=O)N2CCCC2COCC(=O)N(C)CC2CCC(Cc3ccccc3)(N3CCN(C)CC3)CC2)c(C)c1` (stereo not shown) [Compound 154, N-((4-benzyl-4-(4-methylpiperazin-1-yl)cyclohexyl)methyl)-2-((1-(4-methoxy-2,6-dimethylphenylsulfonyl)pyrrolidin-2-yl)methoxy)-N-methylacetamide], the inhibition at 10 µM was found to be 95% in assay [1] and 101% in assay [2].
On to `CN(CCC1CCC(c2ccccc2)(N(C)C)CC1)C(=O)CC(NS(=O)(=O)c1ccc2ccccc2c1)c1ccccc1` (stereo not shown) [Compound 90, N-(2-(4-(dimethylamino)-4-phenylcyclohexyl)ethyl)-N-methyl-3-(naphthalene-2-sulfonamido)-3-phenylpropanamide], for which the inhibition at 10 µM in assay [1] and in assay [2] was 97% each time.
In the case of `COc1cc(C)c(S(=O)(=O)N2CCCC(COCC(=O)NC3CCC(Cc4ccccc4)(N4CCCC4)CC3)C2)c(C)c1` (stereo not shown) [Compound 180, N-(4-benzyl-4-(pyrrolidin-1-yl)cyclohexyl)-2-((1-(4-methoxy-2,6-dimethylphenylsulfonyl)piperidin-3-yl)methoxy)acetamide], the inhibition at 10 µM was 71% in assay [1] and 73% in assay [2].
For `COc1cc(C)c(S(=O)(=O)N2CCCCC2COCC(=O)N(C)CCC2CCC(CCc3ccccc3)(N(C)C)CC2)c(C)c1` (stereo not shown) [Compound 73, N-(2-(4-(dimethylamino)-4-phenethylcyclohexyl)ethyl)-2-((1-(4-methoxy-2,6-dimethylphenylsulfonyl)piperidin-2-yl)methoxy)-N-methylacetamide], in that order: 104% and 99%.
For `Cc1cc(S(=O)(=O)N2CCCCC2CCC(=O)N2CCC(c3ccccc3)(N3CCN(C)CC3)CC2)c(C)cc1Cl` (stereo not shown) [Compound 110, 3-(1-(4-chloro-2,5-dimethylphenylsulfonyl)piperidin-2-yl)-1-(4-(4-methylpiperazin-1-yl)-4-phenylpiperidin-1-yl)propan-1-one], in that order: 104% and 78%.
The like results for `COc1cc(C)c(S(=O)(=O)N2CCCC2COCC(=O)NC2CCC(Cc3ccccc3)(N3CCCC3)CC2)c(C)c1` (stereo not shown) [Compound 151, N-(4-benzyl-4-(pyrrolidin-1-yl)cyclohexyl)-2-((1-(4-methoxy-2,6-dimethylphenylsulfonyl)pyrrolidin-2-yl)methoxy)acetamide] were, in that order, 90% and 103%.
In the case of `COc1cc(C)c(S(=O)(=O)N2CCCCC2COCC(=O)N(C)CCCC2CCC(c3ccccc3)(N(C)C)CC2)c(C)c1` (stereo not shown) [Compound 203, N-(3-(4-(dimethylamino)-4-phenylcyclohexyl)propyl)-2-((1-(4-methoxy-2,6-dimethylphenylsulfonyl)piperidin-2-yl)methoxy)-N-methylacetamide], the inhibition at 10 µM in assay [1] was 99%; in assay [2], 98%.
The like results for `COc1cc(C)c(S(=O)(=O)N(C)CCOCC(=O)N(C)CCCC2CCC(Cc3ccccc3)(N3CCCC3)CC2)c(C)c1` (stereo not shown) [Compound 85, N-(3-(4-benzyl-4-(pyrrolidin-1-yl)cyclohexyl)propyl)-2-(2-(4-methoxy-N,2,6-trimethylphenylsulfonamido)ethoxy)-N-methylacetamide] were, in that order, 99% and 99%.
The like results for `CN(CCC1CCC(c2ccccc2)(N2CCCC2)CC1)C(=O)CC1CCCCN1S(=O)(=O)c1cccc(C(F)(F)F)c1` (stereo not shown) [Compound 106, N-methyl-N-(2-(4-phenyl-4-(pyrrolidin-1-yl)cyclohexyl)ethyl)-2-(1-(3-(trifluoromethyl)phenylsulfonyl)piperidin-2-yl)acetamide] were, in that order, 101% and 79%.
Take `COc1cc(C)c(S(=O)(=O)N2CCCCC2COCC(=O)NC2CCC(c3ccccc3)(N3CCCC3)CC2)c(C)c1` (stereo not shown) [Compound 147, 2-((1-(4-methoxy-2,6-dimethylphenylsulfonyl)piperidin-2-yl)methoxy)-N-(4-phenyl-4-(pyrrolidin-1-yl)cyclohexyl)acetamide]: the inhibition at 10 µM stood at 94% in assay [1] and 108% in assay [2].
